This is an account of results in PubChem BioAssay AID179 (DTP/NCI, 2004).

The assay has as its system CEM cells HIV-1 protection, formazan growth assay. Nature of the assay: NCI AIDS Antiviral Assay. As to conditions: for IC50: measured here: growth of uninfected CEM cells. The procedure, abridged: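 Protection of CEM cells against HIV-1 was scored from cell growth (soluble formazan) across five concentrations, with parallel uninfected cells. Lack of protection may reflect toxicity.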

Calls of active or inactive are those of the source.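 How the source made its calls: active means compounds giving half or more protection of infected cells from virus-caused growth loss, again on retest; inactive means the rest.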

As for `CC1(C)C=Cc2c(cc3oc4ccc5c(c4c(=O)c3c2O)C=CC(C)(C)O5)O1`, the EC50 (in general, the midpoint of the concentration-response curve) is 36.3 µM and the IC50 (in general, the point on the concentration scale where inhibition reaches its midpoint) stood at 50.1 µM.

For the compound `c1ccc(COc2ccc(CC3SCCCS3)cc2)cc1`, the EC50 is more than 200 µM and the IC50 was more than 200 µM.

For `COc1ccc(C2=[N+]([O-])c3ccccc3C2=O)cc1`, the result was inactive.

For the compound `COc1c(Cl)cc(Cl)cc1S(=O)O`, the result was inactive.

In the case of `CCOC(=O)Cc1cc(=O)oc2c3c(cc(OC(C)C)c12)O[C@H](C)[C@@H](C)C3=O`, the EC50 was more than 200 µM and the IC50 was found to be 195 µM.

Consider `Cc1cc2c(c(=O)n1C)COC2=O`, for which the outcome was inactive.

Regarding `CN(C)c1ccc(/C=C(\C#N)c2ccc(F)cc2)cc1`, the EC50 is more than 20 µM and the IC50 amounted to 1.07 µM.

Regarding `COc1ccc2c(c1)-c1nc(=S)n(CCN(C)C)c3ccc([N+](=O)[O-])c(c13)N2`, the EC50 was more than 2 µM and the IC50 worked out at 0.389 µM.

In the case of `C/C(CC(=O)Nc1cccc([N+](=O)[O-])c1)=N/NC(N)=S`, the EC50 was more than 447 µM and the IC50 is more than 447 µM.

For the compound `O=[N+]([O-])c1cccc2nc3ccccc3c(NCCCN3CCOCC3)c12`, the EC50 was more than 0.2 µM and the IC50 was determined as 0.0631 µM.

Regarding `O=C(Nc1ccc(Cl)cc1Cl)C(=O)C(C(=O)c1ccncc1)C1OC(=O)c2ccccc21` (stereo not drawn), the EC50 was more than 178 µM and the concentration for half-maximal inhibition (IC50) is more than 178 µM.

With `NS(=O)(=O)c1ccc(NC(=S)/N=C/c2c(O)c3ccccc3[nH]c2=O)cc1`, the EC50 is more than 200 µM and the IC50 is more than 200 µM.

For the compound `CCOC(=O)c1c(-c2ccccc2)c(OC)cn1C`, the EC50 was more than 200 µM and the IC50 is more than 200 µM.

For `CC1CCCC(C(=O)/C(=C/c2cccc(Cl)c2)C(=O)C(=O)O)C1` (stereo not drawn), the EC50 is more than 15.5 µM and the IC50 was more than 15.5 µM.

Take `O=C1NC(=O)C2(CCCCCC2)N1`: the EC50 is more than 200 µM and the IC50 was more than 200 µM.

Regarding `COc1ccc(/C=N\N2CC(=O)N3C4C=CC(CC4)N3C2=O)cc1` (stereo not drawn), the EC50 is more than 200 µM and the IC50 was more than 200 µM.

With `CC(=O)OCC1(C)ON=C2CCCCC21` (stereo not drawn), the EC50 was more than 1170 µM and the IC50 is more than 1170 µM.

In the case of `O=C1CS(=O)(=O)C(c2ccccc2)N1N1C(=O)CS(=O)(=O)C1c1ccccc1` (stereo not drawn), the EC50 is more than 200 µM and the IC50 is more than 200 µM.

In the case of `OC1CN=C2c3ccccc3C(O)(c3ccc(Cl)cc3)N2C1` (stereo not drawn), the EC50 is more than 200 µM and the half-inhibitory concentration (IC50) is 44.7 µM.

Consider `CCN(CC)c1ccc2cc(C(N)=S)c(=N)oc2c1`, for which the EC50 was more than 61.7 µM and the IC50 stood at 20.4 µM.

`COC(=O)c1c(C(=O)OC)c(C(c2ccccc2)c2ccccc2)n(-c2ccccc2)c1Cl`: the EC50 was more than 200 µM and the IC50 amounted to 64.6 µM.

Regarding `O=C1NC(=O)C(Cc2ccccc2Cl)N1` (stereo not drawn), the EC50 was more than 200 µM and the IC50 was more than 200 µM.

As for `COC[C@@H](N=CN1CCc2cc(OC)c(OC)cc2C1)C(C)(C)C`, the EC50 is more than 741 µM and the IC50 was more than 741 µM.

Turning to `NC(=O)/C(=N\NC(=O)C[n+]1ccccc1)C1NC(=O)NC1=O` (stereo not drawn), the EC50 was more than 148 µM and the half-inhibitory concentration (IC50) is more than 148 µM.

As for `CC(=O)CSc1c(-c2ccccc2)c(=O)n(-c2ccccc2)c(=S)n1-c1ccccc1`, the EC50 was more than 200 µM and the IC50 worked out at 79.4 µM.

As to `Cc1oc2c(c(C)nn2-c2ccccc2)c(=O)c1Cl`, the EC50 was more than 200 µM and the IC50 amounted to 174 µM.

Turning to `CCCCNC(=S)Nc1nc(C(=O)NNC(=S)NCc2ccccc2)cs1`, the EC50 is more than 126 µM and the IC50 is 26.3 µM.

As to `Nc1cnc2c(c1)c(=O)nc1n2CCS1`, the EC50 was more than 200 µM and the IC50 came out at 117 µM.

As for `COc1ccc(N2C(=O)c3cccnc3S2(=O)=O)cc1`, the EC50 is more than 200 µM and the IC50 was more than 200 µM.

For `CC(=O)OC(C)(C)/C=C/C(=O)[C@](C)(O)[C@H]1[C@H](O)C[C@@]2(C)[C@@H]3CC=C4[C@@H](C=C(O)C(=O)C4(C)C)[C@]3(C)C(=O)C[C@]12C`, the EC50 was more than 0.2 µM and the IC50 was determined as 0.00676 µM.

Take `COc1ccccc1NS(=O)(=O)c1ccc2ncn(NS(=O)(=O)c3ccc(Cl)cc3)c(=O)c2c1`: the outcome was inactive.

As to `O=CN(CCNc1ccccc1)c1ccccc1`, the EC50 is more than 200 µM and the IC50 was more than 200 µM.

In the case of `Cc1cc(C(c2cc(C)c(O)c(C(=O)O)c2)c2cc(C)c(O)c(C(=O)O)c2)cc(C(=O)O)c1O`, the EC50 was more than 269 µM and the IC50 is more than 269 µM.

With `CN1CCN(C(=O)CCNC(=O)Cc2ccc(C(=O)c3ccccc3)cc2)CC1`, the EC50 was more than 200 µM and the IC50 was determined as 64.6 µM.

With `O=c1[nH]c2nc3ccccc3c(=O)n2nc1Cc1ccccc1`, the EC50 was more than 44.7 µM and the IC50 is more than 44.7 µM.

Regarding `CN1CCC2(CC1)OCCN2CCO`, the EC50 is more than 1260 µM and the IC50 is more than 1260 µM.

Take `CC1=NN(c2ccc(S(=O)(=O)O)cc2)C(=O)C1N=Nc1ccc(-c2ccc(N=Nc3ccc(OS(=O)(=O)c4ccc(C)cc4)cc3)c(S(=O)(=O)O)c2)cc1` (stereo not drawn): the EC50 is 100 µM and the concentration for half-maximal inhibition (IC50) came out at 151 µM.

As for `Cc1cn(CCOCCOC(=O)NC(CCCNC(N)=O)C(=O)O)c(=O)[nH]c1=O` (stereo not drawn), the EC50 is more than 200 µM and the IC50 was more than 200 µM.

Regarding `COC(=O)C(CC1=C(O)Nc2ccccc2N1)/C(=N/NC(N)=O)C(=O)Nc1ccccc1C` (stereo not drawn), the result was inactive.

Take `Clc1ccc(C2NN=C3c4ccccc4OCC32)cc1` (stereo not drawn): the EC50 was more than 200 µM and the IC50 is 4.27 µM.

Turning to `NC(=S)N/N=C(\CCC(=O)Nc1ccccc1[N+](=O)[O-])CC(=O)c1ccco1`, the EC50 was more than 234 µM and the IC50 is more than 234 µM.

Take `CC(C)CCC(=O)c1ccoc1`: the EC50 was more than 1510 µM and the IC50 is more than 1510 µM.

On to `COc1c(Cl)cc(C(=CCCCC(=O)N(C)OC)c2cc(Cl)c(OC)c(C(=O)N(C)OC)c2)cc1C(=O)N(C)OC`, for which the EC50 was more than 200 µM and the IC50 was determined as 30.9 µM.

As for `C[C@@H]1C(=O)OCC2=C3C[C@@H](CC[C@@]3(C)C=CC2=O)[C@H](C)C(=O)OCC2=C3C[C@H]1CC[C@@]3(C)C=CC2=O`, the EC50 was more than 24.5 µM and the IC50 amounted to 21.4 µM.

Take `CN1CC2(CO)C(c3ccccn3)N(C)C(c3ccccn3)C(CO)(C1)C2O` (stereo not drawn): the EC50 is more than 115 µM and the 50% inhibitory concentration (IC50) is more than 115 µM.

As for `CC(C)CCCC(C)[C@H]1CC[C@H]2[C@@H]3CC[C@H]4C[C@@H](CCC=C(c5cc(Cl)c(OC(=O)c6ccccc6)c(C(=O)O)c5)c5cc(Cl)c(OC(=O)c6ccccc6)c(C(=O)O)c5)CC[C@]4(C)[C@H]3CC[C@]12C` (stereo partly drawn), the EC50 is more than 200 µM and the IC50 was more than 200 µM.

As to `N#CC(Cc1ccccc1)C(=O)NN` (stereo not drawn), the EC50 is more than 200 µM and the IC50 was more than 200 µM.

Take `CC1=C(C(=O)Nc2cccc3c2C(=O)NC3=O)CC(C(=O)Nc2cccc3c2C(=O)NC3=O)=C(C)N1`: the EC50 is more than 200 µM and the IC50 was more than 200 µM.

Take `COP(C)(=O)/C(Cc1ccccc1)=N\O` (stereo not drawn): the EC50 was more than 200 µM and the IC50 was more than 200 µM.

Consider `CCC12C[N+]3([O-])CCc4c([nH]c5ccccc45)C(C(=O)OC)(c4cc5c(cc4OC)N(C)C4C(O)(C(=O)OC)C(OC(C)=O)C6(CC)C=CCN7CCC54C76)CC(C3)C1O2` (stereo not drawn), for which the outcome was inactive.

`O=[N+]([O-])c1ccc(Sc2ccc([N+](=O)[O-])cc2)cc1`: the outcome was inactive.

On to `CCOC(=O)c1cnn2c(SC)ncnc12`, for which the EC50 is more than 282 µM and the IC50 is 67.6 µM.

Turning to `COc1cc(C(c2c(O)c3ccccc3oc2=O)c2c(O)c3ccccc3oc2=O)cc(OC)c1O`, the EC50 is more than 200 µM and the IC50 was 15.5 µM.

Take `O=C(c1ccccc1)c1cc(N=Nc2ccc(/C=C/c3ccc(N=Nc4cc(C(=O)c5ccccc5)c5cccnc5c4O)cc3S(=O)(=O)O)c(S(=O)(=O)O)c2)c(O)c2ncccc12`: the EC50 was more than 38.9 µM and the 50% inhibitory concentration (IC50) is more than 38.9 µM.

In the case of `C/C(CC(=O)N(C(C)C)C(C)C)=N\NC(=O)c1ccncc1`, the EC50 is more than 61.7 µM and the half-inhibitory concentration (IC50) is more than 61.7 µM.

With `C=C1CC(Cn2ccc(=O)[nH]c2=O)(c2ccc(OC)cc2)OC1=O` (stereo not drawn), the EC50 was more than 200 µM and the IC50 stood at 2.75 µM.

On to `C=CC(C)(C)n1cc(C2=C(O)C(=O)C(c3c(CC=C(C)C)[nH]c4ccccc34)=C(O)C2=O)c2ccccc21`, for which the EC50 was more than 200 µM and the IC50 is 2.57 µM.

Consider `NC(=S)Nc1[nH]c(=S)nc2c1c(-c1ccccc1)cn2C(=O)c1ccccc1`, for which the EC50 was more than 25.1 µM and the IC50 was more than 25.1 µM.

As for `CCCCCCCCCCCC(=O)OCC1OC(n2cc(F)c(=O)[nH]c2=O)C(N)C(O)C1O` (stereo not drawn), the EC50 is more than 55 µM and the concentration for half-maximal inhibition (IC50) is more than 55 µM.

For the compound `C#CCNC(Cc1cnc[nH]1)C(=O)O` (stereo not drawn), the EC50 is more than 200 µM and the IC50 was more than 200 µM.

Take `Cc1ccc(C(=O)Nc2ccc(S(=O)(=O)O)c3cc(S(=O)(=O)O)cc(S(=O)(=O)O)c23)cc1NC(=O)Nc1cc(C(=O)Nc2ccc(S(=O)(=O)O)c3cc(S(=O)(=O)O)cc(S(=O)(=O)O)c23)ccc1C`: the EC50 is 138 µM and the IC50 was found to be 209 µM.

Turning to `CC1(C)N=C(C(N)=O)c2ncn(Cc3ccccc3)c2N1`, the EC50 is more than 200 µM and the IC50 was more than 200 µM.

With `COc1ccc(-c2coc3cc(OC)cc(O)c3c2=O)cc1`, the EC50 is more than 200 µM and the concentration for half-maximal inhibition (IC50) is more than 200 µM.

Take `Cc1ccc(/C=C/C(=O)C(C)(C)CN2CCCCC2)cc1`: the EC50 is more than 27.5 µM and the concentration for half-maximal inhibition (IC50) was more than 27.5 µM.

Turning to `O=C(O)CCN(CCC(=O)O)CCN(CCC(=O)O)CCC(=O)O`, the EC50 was more than 589 µM and the IC50 is more than 589 µM.

Consider `COc1ccc(OC)c(N=Nc2cc(OC)c(N=Nc3c(O)c4ccccc4[nH]c3=O)cc2Cc2ccccc2C(=O)O)c1`, for which the EC50 was more than 50.1 µM and the IC50 amounted to 31.6 µM.

Turning to `Cc1cccc2c1C/C(=C\c1cccc(C)c1C(=O)O)C2=O`, the result was inactive.

As for `NC1=Nc2ccccc2Sc2nncn21`, the EC50 is more than 200 µM and the IC50 worked out at 151 µM.
